Among the data in patent US8754100B2, “Nitrogen-containing fused heterocyclic compounds and their use as beta amyloid production inhibitors” (EISAI R&D Management Co., Ltd., priority 2009, dated 2014) are IC50 values, retold here.

The test relates to Aβ42 production in rat primary neuronal culture. Description: Quantification of Aβ peptide (Aβ42 ELISA) in culture of neurons from rat fetus brain. As to conditions: Rattus norvegicus, Neuron, 72 h; primary neuronal culture from cerebral cortex of embryonic day 18 Wistar rats; cultured three days after addition of compound; Aβ42 in medium by ELISA; read-out: Aβ42 Production reducing action IC50. The class given is cell-based. How it is done:
Quantification of Aβ Peptide in Culture of Neurons from Rat Fetus Brain
(1) Rat Primary Neuronal Culture
Primary neuronal cultures were prepared from the cerebral cortex of embryonic day 18 Wistar rats (Charles River Japan, Yokohama, Japan). Specifically, the embryos were aseptically removed from pregnant rats under ether anesthesia. The brain was isolated from the embryo and immersed in an ice-cold L-15 medium (Invitrogen Corp. Cat #11415-064, Carlsbad, Calif., USA, or SIGMA L1518, for example). The cerebral cortex was collected from the isolated brain under a stereoscopic microscope. The cerebral cortex fragments collected were enzymatically treated in an enzyme solution containing 0.25% trypsin (Invitrogen Corp. Cat #15050-065, Carlsbad, Calif., USA) and 0.01% DNase (Sigma D5025, St. Louis, Mo., USA) at 37° C. for 30 minutes to disperse the cells. Here, the enzymatic reaction was stopped by adding inactivated horse serum to the solution. The enzymatically treated solution was centrifuged at 1,500 rpm for five minutes to remove the supernatant 5 to 10 ml of a medium was added to the resulting cell mass. Neurobasal medium (Invitrogen Corp. Cat #21103-049, Carlsbad, Calif., USA) supplemented with 2% B27 supplement (Invitrogen Corp. Cat #17504-044, Carlsbad, Calif., USA), 25 μM 2-mercaptoethanol (2-ME, WAKO Cat #139-06861, Osaka, Japan), 0.5 mM L-glutamine (Invitrogen Corp. Cat #25030-081, Carlsbad, Calif., USA), and Antibiotics-Antimycotics (Invitrogen Corp. Cat #15240-062, Carlsbad, Calif., USA) was used as the medium (Neurobasal/B27/2-ME). However, the above Neurobasal medium not supplemented with 2-ME (Neurobasal/B27) was used for the assay. The cells were redispersed by mild pipetting of the cell mass to which the medium was added. The cell dispersion was filtered through a 40-μm nylon mesh (Cell Strainer, Cat #35-2340, Becton Dickinson Labware, Franklin Lakes, N.J., USA) to remove the remaining cell mass, and thus a neuronal cell suspension was obtained. The neuronal cell suspension was diluted with the medium and then plated in a volume of 100 μl/well at an initial cell density of 5×10^5 cells/cm^2 in a 96-well polystyrene culture plate pre-coated with poly-L or D-lysine (Falcon Cat #35-3075, Becton Dickinson Labware, Franklin Lakes, N.J., USA coated with poly-L-lysine using the method shown below, or BIOCOAT™ cell environments Poly-D-lysine cell ware 96-well plate, Cat #35-6461, Becton Dickinson Labware, Franklin Lakes, N.J., USA). Poly-L-lysine coating was carried out as follows. 100 μg/ml of a poly-L-lysine (SIGMA P2636, St. Louis, Mo., USA) solution was aseptically prepared with a 0.15 M borate buffer (pH 8.5). […] Thereafter, the coated 96-well polystyrene culture plate was washed with sterile water four or more times, and then dried or rinsed with sterile PBS or medium, and used for cell plating. The plated cells were cultured in the culture plate at 37° C. in 5% CO2-95% air for one day. Then, the total amount of the medium was replaced with a fresh Neurobasal/B27/2-ME medium, and then the cells were cultured for further three days.
The drug was added to the culture plate on Day 4 of culture as follows. The total amount of the medium was removed from the wells, and 180 μl/well of Neurobasal medium not containing 2-ME and containing 2% B-27 (Neurobasal/B27) was added thereto. A solution of the test compound in dimethyl sulfoxide (hereinafter abbreviated as DMSO) was diluted with Neurobasal/B27 to a concentration 10-fold higher than the final concentration. 20 μl/well of the dilution was added to and sufficiently mixed with the medium. The final DMSO concentration was 1% or less. Only DMSO was added to the control group.
The cells were cultured for three days after addition of the compound, and the total amount of the medium was collected. The resulting medium was used as an ELISA sample. […]
In general terms: ELISA stands for enzyme-linked immunosorbent assay.

As to `COc1nc(-c2cn3c(n2)C(c2ccccc2C(F)(F)F)CCC3)ccc1-n1cnc(C)c1` (single isomer, unassigned) [Example 102, (−)-2-[6-methoxy-5-(4-methylimidazol-1-yl)pyridin-2-yl]-8-(2-trifluoromethylphenyl)-5,6,7,8-tetrahydroimidazo[1,2-a]pyridine], the IC50 (in general, the concentration at which inhibition is half-maximal) was 55 nM.
